# Assay results: the supplement of paper PMC10307832
# Key:
# Experiment in all cases: relative viability (nuclei count vs DMSO), 5 days (fraction); higher = more cells survive
# NCI-H2126 = system: NCI-H2126
# In short: (§1)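 A single step with final 0.05% Triton X-100, 1% formaldehyde and 1 ug/ml Hoechst fixed the cells and stained nuclei 5 days after treatment. Lung cancer cell lines in 1536-well plates had been treated by pin tool the day after seeding with one drug alone or a fixed anchor-drug dose plus five library-drug doses (not always all listed) in √10 steps, and nuclei were counted on 4× images. Relative viability is the ratio of nuclei in treated wells to nuclei in vehicle wells, taken as the median of duplicate plates.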
# NCI-H322M = system: NCI-H322M
# In short: as §1
# HOP-62 = system: HOP-62
# In short: as §1
# NCI-H1650 = system: NCI-H1650
# In short: as §1
# NCI-H2085 = system: NCI-H2085
# In short: as §1
# NCI-H358 = system: NCI-H358
# In short: as §1
# NCI-H2023 = system: NCI-H2023
# In short: as §1
# NCI-H2342 = system: NCI-H2342
# In short: as §1
# SK-LU-1 = system: SK-LU-1
# In short: as §1
# EMC-BAC-2 = system: EMC-BAC-2
# In short: as §1
# NCI-H661 = system: NCI-H661
# In short: as §1
# NCI-H1993 = system: NCI-H1993
# In short: as §1
# NCI-H1915 = system: NCI-H1915
# In short: as §1
# PC-14 = system: PC-14
# In short: as §1
# BEN = system: BEN
# In short: as §1
# NCI-H647 = system: NCI-H647
# In short: as §1
# NCI-H2347 = system: NCI-H2347
# In short: as §1
# LCLC-97TM1 = system: LCLC-97TM1
# In short: as §1
# NCI-H2009 = system: NCI-H2009
# In short: as §1
# SW 1573 = system: SW 1573
# In short: as §1
# LXF-289 = system: LXF-289
# In short: as §1
# NCI-H727 = system: NCI-H727
# In short: as §1
# H3255 = system: H3255
# In short: as §1
smiles,measurement,setting,value
Clc1ccc(Nc2nnc(Cc3ccncc3)c3ccccc23)cc1 [Vatalanib] + Nc1ncn([C@H]2C[C@H](O)[C@@H](CO)O2)c(=O)n1 [Decitabine] (partner 2 µM),relative viability,NCI-H2126; first compound 0.04 µM,0.514
same,relative viability,NCI-H2126; first compound 0.1265 µM,0.534
same,relative viability,NCI-H2126; first compound 0.4 µM,0.594
same,relative viability,NCI-H2126; first compound 1.265 µM,0.565
same,relative viability,NCI-H2126; first compound 4 µM,0.634
same,relative viability,NCI-H322M; first compound 0.04 µM,0.769
same,relative viability,NCI-H322M; first compound 0.1265 µM,0.687
same,relative viability,NCI-H322M; first compound 0.4 µM,0.786
same,relative viability,NCI-H322M; first compound 4 µM,0.663
same,relative viability,HOP-62; first compound 0.04 µM,0.183
same,relative viability,HOP-62; first compound 0.1265 µM,0.216
same,relative viability,HOP-62; first compound 0.4 µM,0.223
same,relative viability,HOP-62; first compound 1.265 µM,0.239
same,relative viability,HOP-62; first compound 4 µM,0.205
same,relative viability,NCI-H1650; first compound 0.04 µM,0.361
same,relative viability,NCI-H1650; first compound 0.1265 µM,0.414
same,relative viability,NCI-H1650; first compound 0.4 µM,0.388
same,relative viability,NCI-H1650; first compound 1.265 µM,0.373
same,relative viability,NCI-H1650; first compound 4 µM,0.424
same,relative viability,NCI-H2085; first compound 0.04 µM,0.556
same,relative viability,NCI-H2085; first compound 0.1265 µM,0.552
same,relative viability,NCI-H2085; first compound 0.4 µM,0.476
same,relative viability,NCI-H2085; first compound 1.265 µM,0.52
same,relative viability,NCI-H2085; first compound 4 µM,0.527
same,relative viability,NCI-H358; first compound 0.04 µM,0.23
same,relative viability,NCI-H358; first compound 0.1265 µM,0.204
same,relative viability,NCI-H358; first compound 0.4 µM,0.246
same,relative viability,NCI-H358; first compound 1.265 µM,0.21
same,relative viability,NCI-H358; first compound 4 µM,0.234
same,relative viability,NCI-H2023; first compound 0.04 µM,0.22
same,relative viability,NCI-H2023; first compound 0.1265 µM,0.205
same,relative viability,NCI-H2023; first compound 0.4 µM,0.231
same,relative viability,NCI-H2023; first compound 1.265 µM,0.221
same,relative viability,NCI-H2023; first compound 4 µM,0.219
same,relative viability,NCI-H2342; first compound 0.04 µM,0.611
same,relative viability,NCI-H2342; first compound 0.1265 µM,0.781
same,relative viability,NCI-H2342; first compound 0.4 µM,0.718
same,relative viability,NCI-H2342; first compound 1.265 µM,0.736
same,relative viability,NCI-H2342; first compound 4 µM,0.641
same,relative viability,SK-LU-1; first compound 0.04 µM,0.614
same,relative viability,SK-LU-1; first compound 0.1265 µM,0.584
same,relative viability,SK-LU-1; first compound 0.4 µM,0.668
same,relative viability,SK-LU-1; first compound 1.265 µM,0.668
same,relative viability,SK-LU-1; first compound 4 µM,0.52
same,relative viability,EMC-BAC-2; first compound 0.04 µM,0.984
same,relative viability,EMC-BAC-2; first compound 0.1265 µM,0.952
same,relative viability,EMC-BAC-2; first compound 0.4 µM,0.983
same,relative viability,EMC-BAC-2; first compound 4 µM,0.956
same,relative viability,NCI-H661; first compound 0.04 µM,0.584
same,relative viability,NCI-H661; first compound 0.1265 µM,0.512
same,relative viability,NCI-H661; first compound 0.4 µM,0.544
same,relative viability,NCI-H661; first compound 1.265 µM,0.597
same,relative viability,NCI-H661; first compound 4 µM,0.524
same,relative viability,NCI-H1993; first compound 0.04 µM,0.57
same,relative viability,NCI-H1993; first compound 0.1265 µM,0.607
same,relative viability,NCI-H1993; first compound 0.4 µM,0.541
same,relative viability,NCI-H1993; first compound 1.265 µM,0.488
same,relative viability,NCI-H1993; first compound 4 µM,0.495
same,relative viability,NCI-H1915; first compound 0.04 µM,0.251
same,relative viability,NCI-H1915; first compound 0.1265 µM,0.257
same,relative viability,NCI-H1915; first compound 0.4 µM,0.273
same,relative viability,NCI-H1915; first compound 1.265 µM,0.257
same,relative viability,NCI-H1915; first compound 4 µM,0.276
same,relative viability,PC-14; first compound 0.04 µM,0.231
same,relative viability,PC-14; first compound 0.1265 µM,0.213
same,relative viability,PC-14; first compound 0.4 µM,0.219
same,relative viability,PC-14; first compound 1.265 µM,0.174
same,relative viability,PC-14; first compound 4 µM,0.253
same,relative viability,BEN; first compound 0.04 µM,0.644
same,relative viability,BEN; first compound 0.1265 µM,0.727
same,relative viability,BEN; first compound 0.4 µM,0.504
same,relative viability,BEN; first compound 1.265 µM,0.739
same,relative viability,BEN; first compound 4 µM,0.774
same,relative viability,NCI-H647; first compound 0.04 µM,0.4
same,relative viability,NCI-H647; first compound 0.1265 µM,0.375
same,relative viability,NCI-H647; first compound 0.4 µM,0.562
same,relative viability,NCI-H647; first compound 1.265 µM,0.36
same,relative viability,NCI-H647; first compound 4 µM,0.375
same,relative viability,NCI-H2347; first compound 0.04 µM,0.616
same,relative viability,NCI-H2347; first compound 0.1265 µM,0.62
same,relative viability,NCI-H2347; first compound 0.4 µM,0.624
same,relative viability,NCI-H2347; first compound 1.265 µM,0.602
same,relative viability,NCI-H2347; first compound 4 µM,0.64
same,relative viability,LCLC-97TM1; first compound 0.04 µM,0.237
same,relative viability,LCLC-97TM1; first compound 0.1265 µM,0.19
same,relative viability,LCLC-97TM1; first compound 0.4 µM,0.25
same,relative viability,LCLC-97TM1; first compound 1.265 µM,0.224
same,relative viability,LCLC-97TM1; first compound 4 µM,0.232
same,relative viability,NCI-H2009; first compound 0.04 µM,0.378
same,relative viability,NCI-H2009; first compound 0.1265 µM,0.334
same,relative viability,NCI-H2009; first compound 0.4 µM,0.343
same,relative viability,NCI-H2009; first compound 1.265 µM,0.404
same,relative viability,NCI-H2009; first compound 4 µM,0.396
same,relative viability,SW 1573; first compound 0.04 µM,0.541
same,relative viability,SW 1573; first compound 0.1265 µM,0.482
same,relative viability,SW 1573; first compound 0.4 µM,0.39
same,relative viability,SW 1573; first compound 1.265 µM,0.455
same,relative viability,SW 1573; first compound 4 µM,0.493
same,relative viability,LXF-289; first compound 0.04 µM,0.368
same,relative viability,LXF-289; first compound 0.1265 µM,0.38
same,relative viability,LXF-289; first compound 0.4 µM,0.445
same,relative viability,LXF-289; first compound 1.265 µM,0.361
same,relative viability,LXF-289; first compound 4 µM,0.352
same,relative viability,NCI-H727; first compound 0.1265 µM,0.801
same,relative viability,NCI-H727; first compound 0.4 µM,0.539
same,relative viability,NCI-H727; first compound 1.265 µM,0.821
same,relative viability,NCI-H727; first compound 4 µM,0.973
same,relative viability,H3255; first compound 0.04 µM,0.526
same,relative viability,H3255; first compound 0.1265 µM,0.616
same,relative viability,H3255; first compound 0.4 µM,0.515
same,relative viability,H3255; first compound 1.265 µM,0.613
same,relative viability,H3255; first compound 4 µM,0.551
